Test results: PMC5622171 (Nature Communications, 2017)

Columns and labels:
Assay in all cases: KINOMEscan kinase profiling
Format in all cases: binding
[1] = target: T1, PCTK1 (Homo sapiens, UniProt Q00536); details: read-out: %Inhibition by 10 μM SPA70
T1 construct: purchased DiscoverX (Ambit Biosciences) KINOMEscan
Method in brief: (§1)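 KINOMEscan profiling followed a published protocol. Kinases whose inhibition exceeded a set cut-off were then tested in a dilution series beginning at 30 µM.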

[2] = target: T2, DYRK1B (Homo sapiens, UniProt Q9Y463); details: read-out: %Inhibition by 10 μM SPA70
T2 construct: purchased DiscoverX (Ambit Biosciences) KINOMEscan
T2 sequence (Q9Y463 whole entry): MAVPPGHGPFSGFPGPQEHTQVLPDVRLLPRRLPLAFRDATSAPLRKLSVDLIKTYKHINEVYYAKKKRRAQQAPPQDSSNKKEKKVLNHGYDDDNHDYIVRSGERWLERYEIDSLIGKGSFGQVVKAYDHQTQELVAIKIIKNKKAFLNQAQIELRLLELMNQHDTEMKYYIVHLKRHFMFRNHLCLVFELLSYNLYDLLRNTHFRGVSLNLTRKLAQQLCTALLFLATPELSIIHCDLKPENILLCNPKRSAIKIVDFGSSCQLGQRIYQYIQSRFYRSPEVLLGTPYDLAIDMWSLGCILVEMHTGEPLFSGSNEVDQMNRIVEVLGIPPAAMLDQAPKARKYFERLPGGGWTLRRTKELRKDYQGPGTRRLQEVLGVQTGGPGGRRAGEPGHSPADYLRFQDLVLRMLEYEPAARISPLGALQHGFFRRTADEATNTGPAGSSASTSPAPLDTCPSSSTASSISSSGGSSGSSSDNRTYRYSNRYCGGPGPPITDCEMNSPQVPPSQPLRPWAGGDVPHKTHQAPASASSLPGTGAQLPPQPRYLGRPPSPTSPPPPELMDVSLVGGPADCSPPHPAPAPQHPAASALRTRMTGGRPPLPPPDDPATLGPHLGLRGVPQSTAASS
Method in brief: as §1

[3] = target: T3, YSK4 (Homo sapiens, UniProt Q56UN5); details: read-out: %Inhibition by 10 μM SPA70
T3 construct: purchased DiscoverX (Ambit Biosciences) KINOMEscan
Method in brief: as §1

[4] = target: T4, EPHA5 (Homo sapiens, UniProt P54756)
T4 construct: purchased DiscoverX (Ambit Biosciences) KINOMEscan
Method in brief: as §1

[5] = target: T5, PIK3C2B (Homo sapiens, UniProt O00750); details: read-out: %Inhibition by 10 μM SPA70
T5 construct: purchased DiscoverX (Ambit Biosciences) KINOMEscan
Method in brief: as §1

[6] = target: T6, DLK (Homo sapiens, UniProt Q12852)
T6 construct: purchased DiscoverX (Ambit Biosciences) KINOMEscan
Method in brief: as §1

[7] = target: T7, PIK3C2G (Homo sapiens, UniProt O75747); details: read-out: %Inhibition by 10 μM SPA70
T7 construct: purchased DiscoverX (Ambit Biosciences) KINOMEscan
Method in brief: as §1

[8] = target: T8, CDC2L5 (Homo sapiens, UniProt Q14004)
T8 construct: purchased DiscoverX (Ambit Biosciences) KINOMEscan
Method in brief: as §1

[9] = target: T9, CDKL5 (Homo sapiens, UniProt O76039); details: read-out: %Inhibition by 10 μM SPA70
T9 construct: purchased DiscoverX (Ambit Biosciences) KINOMEscan
T9 sequence (O76039 whole entry): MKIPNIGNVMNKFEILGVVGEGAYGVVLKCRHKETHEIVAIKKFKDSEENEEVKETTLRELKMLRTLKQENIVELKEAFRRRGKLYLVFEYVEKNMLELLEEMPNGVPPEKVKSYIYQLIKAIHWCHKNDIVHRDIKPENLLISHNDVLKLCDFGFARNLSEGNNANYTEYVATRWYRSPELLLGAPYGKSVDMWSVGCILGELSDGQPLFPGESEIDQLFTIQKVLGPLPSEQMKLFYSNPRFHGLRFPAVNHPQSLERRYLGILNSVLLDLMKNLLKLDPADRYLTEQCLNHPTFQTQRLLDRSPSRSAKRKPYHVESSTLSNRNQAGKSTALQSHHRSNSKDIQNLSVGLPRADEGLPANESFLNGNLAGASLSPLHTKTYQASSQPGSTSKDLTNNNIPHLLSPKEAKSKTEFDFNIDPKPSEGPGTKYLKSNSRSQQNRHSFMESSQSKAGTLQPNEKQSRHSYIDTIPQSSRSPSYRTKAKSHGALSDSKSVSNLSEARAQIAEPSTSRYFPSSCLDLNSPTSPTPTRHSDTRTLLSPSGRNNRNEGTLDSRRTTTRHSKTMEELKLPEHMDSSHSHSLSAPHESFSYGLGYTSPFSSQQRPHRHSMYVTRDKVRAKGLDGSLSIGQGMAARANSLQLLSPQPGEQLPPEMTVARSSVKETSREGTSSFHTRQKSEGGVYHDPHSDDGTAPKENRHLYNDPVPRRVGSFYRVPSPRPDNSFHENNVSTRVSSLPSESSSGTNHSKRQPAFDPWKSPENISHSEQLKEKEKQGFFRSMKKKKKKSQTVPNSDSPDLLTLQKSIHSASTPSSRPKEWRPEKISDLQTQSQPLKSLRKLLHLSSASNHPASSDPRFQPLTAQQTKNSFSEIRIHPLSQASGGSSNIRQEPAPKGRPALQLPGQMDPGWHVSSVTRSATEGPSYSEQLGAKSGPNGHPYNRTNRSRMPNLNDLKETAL
Method in brief: as §1

[10] = target: T10, ZAK (Homo sapiens, UniProt Q9NYL2); details: read-out: %Inhibition by 10 μM SPA70
T10 construct: purchased DiscoverX (Ambit Biosciences) KINOMEscan
Method in brief: as §1

[11] = target: T11, MLCK (Homo sapiens, UniProt Q32MK0); details: read-out: %Inhibition by 10 μM SPA70
T11 construct: purchased DiscoverX (Ambit Biosciences) KINOMEscan
Method in brief: as §1

[12] = target: T12, TYK2(JH2domain-pseudokinase) (Homo sapiens, UniProt P29597)
T12 construct: TYK2(JH2domain-pseudokinase); purchased DiscoverX (Ambit Biosciences) KINOMEscan
Method in brief: as §1

[13] = target: T13, ERK1 (Homo sapiens, UniProt P27361); details: read-out: %Inhibition by 10 μM SPA70
T13 construct: purchased DiscoverX (Ambit Biosciences) KINOMEscan
Method in brief: as §1

[14] = target: T14, EPHA2 (Homo sapiens, UniProt P29317); details: read-out: %Inhibition by 10 μM SPA70
T14 construct: purchased DiscoverX (Ambit Biosciences) KINOMEscan
Method in brief: as §1

[15] = target: T15, MAP4K4 (Homo sapiens, UniProt O95819); details: read-out: %Inhibition by 10 μM SPA70
T15 construct: purchased DiscoverX (Ambit Biosciences) KINOMEscan
T15 sequence (O95819 whole entry): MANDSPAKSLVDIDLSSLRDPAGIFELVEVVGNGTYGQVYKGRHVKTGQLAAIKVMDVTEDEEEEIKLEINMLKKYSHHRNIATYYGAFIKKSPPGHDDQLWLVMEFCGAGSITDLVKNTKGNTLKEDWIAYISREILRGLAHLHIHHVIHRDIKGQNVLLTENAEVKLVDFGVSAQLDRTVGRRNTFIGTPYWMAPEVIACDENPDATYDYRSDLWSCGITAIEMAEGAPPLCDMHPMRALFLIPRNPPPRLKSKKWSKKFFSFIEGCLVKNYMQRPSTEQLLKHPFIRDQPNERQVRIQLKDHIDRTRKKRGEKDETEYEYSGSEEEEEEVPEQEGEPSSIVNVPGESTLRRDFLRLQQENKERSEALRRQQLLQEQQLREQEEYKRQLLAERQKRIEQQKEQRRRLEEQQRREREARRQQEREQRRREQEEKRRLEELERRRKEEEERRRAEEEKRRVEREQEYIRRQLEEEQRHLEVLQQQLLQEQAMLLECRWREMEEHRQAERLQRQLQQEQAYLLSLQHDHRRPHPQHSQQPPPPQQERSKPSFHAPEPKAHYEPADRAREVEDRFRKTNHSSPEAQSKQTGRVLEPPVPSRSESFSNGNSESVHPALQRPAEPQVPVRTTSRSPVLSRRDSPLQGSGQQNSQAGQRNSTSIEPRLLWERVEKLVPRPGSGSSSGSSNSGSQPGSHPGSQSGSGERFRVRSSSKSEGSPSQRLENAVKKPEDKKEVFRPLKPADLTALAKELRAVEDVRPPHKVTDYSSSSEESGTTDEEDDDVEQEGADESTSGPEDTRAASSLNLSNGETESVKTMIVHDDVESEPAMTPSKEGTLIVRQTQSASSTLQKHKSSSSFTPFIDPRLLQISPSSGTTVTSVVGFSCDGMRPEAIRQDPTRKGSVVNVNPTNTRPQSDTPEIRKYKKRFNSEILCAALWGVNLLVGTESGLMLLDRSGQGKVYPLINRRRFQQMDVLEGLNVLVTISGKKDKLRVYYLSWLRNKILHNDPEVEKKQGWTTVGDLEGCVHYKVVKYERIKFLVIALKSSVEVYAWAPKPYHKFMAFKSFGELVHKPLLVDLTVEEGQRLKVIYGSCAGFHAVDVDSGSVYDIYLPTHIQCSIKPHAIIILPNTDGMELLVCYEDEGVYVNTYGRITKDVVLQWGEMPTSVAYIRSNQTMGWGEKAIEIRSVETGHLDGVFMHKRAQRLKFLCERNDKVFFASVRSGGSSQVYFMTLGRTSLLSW
Method in brief: as §1

[16] = target: T16, DMPK2 (Homo sapiens, UniProt Q6DT37); details: read-out: %Inhibition by 10 μM SPA70
T16 construct: purchased DiscoverX (Ambit Biosciences) KINOMEscan
Method in brief: as §1

[17] = target: T17, TNIK (Homo sapiens, UniProt Q9UKE5); details: read-out: %Inhibition by 10 μM SPA70
T17 construct: purchased DiscoverX (Ambit Biosciences) KINOMEscan
Method in brief: as §1

[18] = target: T18, ROCK1 (Homo sapiens, UniProt Q13464); details: read-out: %Inhibition by 10 μM SPA70
T18 construct: purchased DiscoverX (Ambit Biosciences) KINOMEscan
Method in brief: as §1

[19] = target: T19, CSNK2A1 (Homo sapiens, UniProt P68400); details: read-out: %Inhibition by 10 μM SPA70
T19 construct: purchased DiscoverX (Ambit Biosciences) KINOMEscan
T19 sequence (P68400 whole entry): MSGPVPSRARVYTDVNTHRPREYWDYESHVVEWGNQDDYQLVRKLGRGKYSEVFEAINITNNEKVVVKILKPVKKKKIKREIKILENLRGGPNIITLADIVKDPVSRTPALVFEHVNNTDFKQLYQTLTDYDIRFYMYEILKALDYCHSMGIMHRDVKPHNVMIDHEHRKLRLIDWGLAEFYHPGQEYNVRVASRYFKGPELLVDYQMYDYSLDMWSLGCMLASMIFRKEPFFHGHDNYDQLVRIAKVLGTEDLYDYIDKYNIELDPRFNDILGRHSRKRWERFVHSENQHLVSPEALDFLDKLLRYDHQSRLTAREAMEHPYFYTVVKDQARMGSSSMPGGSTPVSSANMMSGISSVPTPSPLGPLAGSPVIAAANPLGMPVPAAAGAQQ
Method in brief: as §1

[20] = target: T20, WEE1 (Homo sapiens, UniProt P30291); details: read-out: %Inhibition by 10 μM SPA70
T20 construct: purchased DiscoverX (Ambit Biosciences) KINOMEscan
Method in brief: as §1

[21] = target: T21, NEK5 (Homo sapiens, UniProt Q6P3R8); details: read-out: %Inhibition by 10 μM SPA70
T21 construct: purchased DiscoverX (Ambit Biosciences) KINOMEscan
T21 sequence (Q6P3R8 whole entry): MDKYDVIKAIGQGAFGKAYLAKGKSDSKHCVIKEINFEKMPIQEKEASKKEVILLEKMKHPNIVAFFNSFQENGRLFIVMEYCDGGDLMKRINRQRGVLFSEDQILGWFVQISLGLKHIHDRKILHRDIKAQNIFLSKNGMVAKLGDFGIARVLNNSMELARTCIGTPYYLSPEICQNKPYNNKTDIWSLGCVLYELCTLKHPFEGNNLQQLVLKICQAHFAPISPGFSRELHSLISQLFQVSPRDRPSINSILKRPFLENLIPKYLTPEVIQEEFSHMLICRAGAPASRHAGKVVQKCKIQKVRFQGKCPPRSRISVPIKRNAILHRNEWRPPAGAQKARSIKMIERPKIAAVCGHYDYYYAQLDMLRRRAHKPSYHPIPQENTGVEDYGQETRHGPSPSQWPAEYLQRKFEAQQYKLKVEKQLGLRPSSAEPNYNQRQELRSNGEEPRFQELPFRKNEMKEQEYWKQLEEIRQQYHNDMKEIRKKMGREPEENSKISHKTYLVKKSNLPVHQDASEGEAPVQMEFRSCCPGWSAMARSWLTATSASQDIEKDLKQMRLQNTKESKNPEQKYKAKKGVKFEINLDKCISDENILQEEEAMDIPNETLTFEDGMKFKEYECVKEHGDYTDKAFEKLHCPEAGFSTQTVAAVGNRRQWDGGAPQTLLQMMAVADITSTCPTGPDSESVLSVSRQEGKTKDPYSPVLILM
Method in brief: as §1

[22] = target: T22, ERK4 (Homo sapiens, UniProt P31152); details: read-out: %Inhibition by 10 μM SPA70
T22 construct: purchased DiscoverX (Ambit Biosciences) KINOMEscan
Method in brief: as §1

[23] = target: T23, SIK2 (Homo sapiens, UniProt Q9H0K1); details: read-out: %Inhibition by 10 μM SPA70
T23 construct: purchased DiscoverX (Ambit Biosciences) KINOMEscan
Method in brief: as §1

[24] = target: T24, PKAC-beta (Homo sapiens, UniProt P22694)
T24 construct: purchased DiscoverX (Ambit Biosciences) KINOMEscan
Method in brief: as §1

[25] = target: T25, LCK (Homo sapiens, UniProt P06239); details: read-out: %Inhibition by 10 μM SPA70
T25 construct: purchased DiscoverX (Ambit Biosciences) KINOMEscan
Method in brief: as §1

[26] = target: T26, SgK110 (Homo sapiens, UniProt P0C264); details: read-out: %Inhibition by 10 μM SPA70
T26 construct: purchased DiscoverX (Ambit Biosciences) KINOMEscan
Method in brief: as §1

[27] = target: T27, IKK-epsilon (Homo sapiens, UniProt Q14164); details: read-out: %Inhibition by 10 μM SPA70
T27 construct: purchased DiscoverX (Ambit Biosciences) KINOMEscan
Method in brief: as §1

[28] = target: T28, SLK (Homo sapiens, UniProt Q9H2G2); details: read-out: %Inhibition by 10 μM SPA70
T28 construct: purchased DiscoverX (Ambit Biosciences) KINOMEscan
Method in brief: as §1

[29] = target: T29, TAOK2 (Homo sapiens, UniProt Q9UL54); details: read-out: %Inhibition by 10 μM SPA70
T29 construct: purchased DiscoverX (Ambit Biosciences) KINOMEscan
Method in brief: as §1

[30] = target: T30, DYRK1A (Homo sapiens, UniProt Q13627); details: read-out: %Inhibition by 10 μM SPA70
T30 construct: purchased DiscoverX (Ambit Biosciences) KINOMEscan
Method in brief: as §1

[31] = target: T31, CDK7 (Homo sapiens, UniProt P50613); details: read-out: %Inhibition by 10 μM SPA70
T31 construct: purchased DiscoverX (Ambit Biosciences) KINOMEscan
Method in brief: as §1

[32] = target: T32, CSNK1A1L (Homo sapiens, UniProt Q8N752); details: read-out: %Inhibition by 10 μM SPA70
T32 construct: purchased DiscoverX (Ambit Biosciences) KINOMEscan
Method in brief: as §1

[33] = target: T33, MINK (Homo sapiens, UniProt Q8N4C8); details: read-out: %Inhibition by 10 μM SPA70
T33 construct: purchased DiscoverX (Ambit Biosciences) KINOMEscan
Method in brief: as §1

[34] = target: T34, TXK (Homo sapiens, UniProt P42681); details: read-out: %Inhibition by 10 μM SPA70
T34 construct: purchased DiscoverX (Ambit Biosciences) KINOMEscan
T34 sequence (P42681 whole entry): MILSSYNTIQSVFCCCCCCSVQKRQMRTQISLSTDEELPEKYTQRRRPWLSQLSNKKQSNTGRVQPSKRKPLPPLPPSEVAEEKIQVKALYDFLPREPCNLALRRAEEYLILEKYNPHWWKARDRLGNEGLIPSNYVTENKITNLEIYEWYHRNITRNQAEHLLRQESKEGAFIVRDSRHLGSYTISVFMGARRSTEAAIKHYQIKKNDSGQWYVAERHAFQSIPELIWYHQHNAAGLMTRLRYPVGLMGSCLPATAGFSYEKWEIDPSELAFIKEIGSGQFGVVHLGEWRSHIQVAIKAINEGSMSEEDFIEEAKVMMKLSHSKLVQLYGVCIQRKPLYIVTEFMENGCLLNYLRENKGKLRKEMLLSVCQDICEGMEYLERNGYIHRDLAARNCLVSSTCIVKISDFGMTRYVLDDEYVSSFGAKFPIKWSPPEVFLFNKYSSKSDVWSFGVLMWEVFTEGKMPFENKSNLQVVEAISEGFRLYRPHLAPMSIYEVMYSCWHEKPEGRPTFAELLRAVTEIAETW
Method in brief: as §1

[35] = target: T35, DAPK2 (Homo sapiens, UniProt Q9UIK4); details: read-out: %Inhibition by 10 μM SPA70
T35 construct: purchased DiscoverX (Ambit Biosciences) KINOMEscan
Method in brief: as §1

[36] = target: T36, SNARK (Homo sapiens, UniProt Q9H093)
T36 construct: purchased DiscoverX (Ambit Biosciences) KINOMEscan
Method in brief: as §1

[37] = target: T37, MKNK1 (Homo sapiens, UniProt Q9BUB5); details: read-out: %Inhibition by 10 μM SPA70
T37 construct: purchased DiscoverX (Ambit Biosciences) KINOMEscan
Method in brief: as §1

[38] = target: T38, EGFR (Homo sapiens, UniProt P00533)
T38 construct: purchased DiscoverX (Ambit Biosciences) KINOMEscan
Method in brief: as §1

[39] = target: T39, MARK1 (Homo sapiens, UniProt Q9P0L2); details: read-out: %Inhibition by 10 μM SPA70
T39 construct: purchased DiscoverX (Ambit Biosciences) KINOMEscan
Method in brief: as §1

[40] = target: T40, ASK2 (Homo sapiens, UniProt O95382); details: read-out: %Inhibition by 10 μM SPA70
T40 construct: purchased DiscoverX (Ambit Biosciences) KINOMEscan
Method in brief: as §1

[41] = target: T41, MST2 (Homo sapiens, UniProt Q13188)
T41 construct: purchased Ambit Biosciences, now part of DiscoveryX
T41 sequence (Q13188 whole entry): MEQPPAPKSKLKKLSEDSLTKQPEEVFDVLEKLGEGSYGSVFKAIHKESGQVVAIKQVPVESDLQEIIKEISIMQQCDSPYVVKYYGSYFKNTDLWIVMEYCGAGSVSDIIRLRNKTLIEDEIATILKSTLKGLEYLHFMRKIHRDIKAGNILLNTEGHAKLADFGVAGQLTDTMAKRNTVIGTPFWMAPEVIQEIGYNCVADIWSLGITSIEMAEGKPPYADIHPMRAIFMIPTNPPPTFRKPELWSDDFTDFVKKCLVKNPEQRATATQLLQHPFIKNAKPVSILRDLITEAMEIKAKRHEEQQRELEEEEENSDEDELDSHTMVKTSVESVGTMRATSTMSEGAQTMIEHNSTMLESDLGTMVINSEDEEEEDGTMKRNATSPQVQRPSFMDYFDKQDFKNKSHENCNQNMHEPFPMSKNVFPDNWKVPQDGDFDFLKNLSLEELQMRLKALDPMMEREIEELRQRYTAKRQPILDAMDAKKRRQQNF
Method in brief: as §1

[42] = read-out: %Inhibition by 10 μM SPA70

Structure (SMILES): COc1ccc(OC)c(-n2nnc(S(=O)(=O)c3ccc(C(C)(C)C)cc3)c2C)c1 [SPA70]
- inhibition at 10 µM [1]: 4%
- inhibition at 10 µM [2]: 0%
- inhibition at 10 µM [3]: 0%
- %Inhibition by 10 μM SPA70 [4]: 0%
- inhibition at 10 µM [5]: 0%
- %Inhibition by 10 μM SPA70 [6]: 4%
- inhibition at 10 µM [7]: 0%
- %Inhibition by 10 μM SPA70 [8]: 0%
- inhibition at 10 µM [9]: 8%
- inhibition at 10 µM [10]: 0%
- inhibition at 10 µM [11]: 0%
- %Inhibition by 10 μM SPA70 [12]: 0%
- inhibition at 10 µM [13]: 0%
- inhibition at 10 µM [14]: 0%
- inhibition at 10 µM [15]: 0%
- inhibition at 10 µM [16]: 3%
- inhibition at 10 µM [17]: 10%
- inhibition at 10 µM [18]: 3%
- inhibition at 10 µM [19]: 15%
- inhibition at 10 µM [20]: 0%
- inhibition at 10 µM [21]: 0%
- inhibition at 10 µM [22]: 0%
- inhibition at 10 µM [23]: 0%
- %Inhibition by 10 μM SPA70 [24]: not inhibited
- inhibition at 10 µM [24, 42]: 0%
- inhibition at 10 µM [25]: 2%
- inhibition at 10 µM [26]: 0%
- inhibition at 10 µM [27]: 0%
- inhibition at 10 µM [28]: 9%
- inhibition at 10 µM [29]: 21%
- inhibition at 10 µM [30]: 0%
- inhibition at 10 µM [31]: 19%
- inhibition at 10 µM [32]: 0%
- inhibition at 10 µM [33]: 0%
- inhibition at 10 µM [34]: 0%
- inhibition at 10 µM [35]: 0%
- %Inhibition by 10 μM SPA70 [36]: 8%
- inhibition at 10 µM [37]: 44%
- %Inhibition by 10 μM SPA70 [38]: 0%
- inhibition at 10 µM [39]: 0%
- inhibition at 10 µM [40]: 0%
- Kd ([41]; 11-point 3-fold serial dilutions starting from 30 µM): > 30 µM
- inhibition at 10 µM [41, 42]: 62%
